Activity calls are given as the source filed them. The calls are words filed in the database; no cut-off is given here.
Key:
Type in all cases: functional
Brugia malayi [1] = test: Antifilarial activity against Brugia malayi assessed as loss of motility at 100 ng/ml after 48 hrs by MTT assay
Brugia malayi [2] = test: Antifilarial activity against Brugia malayi assessed as loss of motility at 60 ng/ml after 48 hrs by MTT assay
Brugia malayi [3] = test: Antifilarial activity against Brugia malayi assessed as loss of motility at 80 ng/ml after 48 hrs by MTT assay
Brugia malayi [4] = test: Antifilarial activity against Brugia malayi assessed as loss of motility at 20 ng/ml after 48 hrs by MTT assay
Brugia malayi [5] = test: Antifilarial activity against Brugia malayi assessed as loss of motility at 40 ng/ml after 48 hrs by MTT assay

Structure (SMILES) | Activity (Brugia malayi [1]) [%] | Activity (Brugia malayi [2]) | Activity (Brugia malayi [3]) [%] | Activity (Brugia malayi [4]) | Activity (Brugia malayi [5])
O=C1C(Cl)C(c2ccc(Br)cc2)N1c1ccc(O)c2ncccc12 (stereo not given) | 23 | 3% | 16 | inactive | inactive
O=C1C(Cl)C(c2ccccc2)N1c1ccc(O)c2ncccc12 (stereo not given) | 2 | inactive | 2 | inactive | inactive
COc1ccc(C2C(Cl)C(=O)N2c2ccc(O)c3ncccc23)cc1 (stereo not given) | 91 | 91% | 91 | 67% | 76%
CC1C(Cl)C(=O)N1c1ccc(O)c2ncccc12 (stereo not given) | 81 | 67% | 76 | 53% | 61%
O=C1C(Cl)C(c2ccc(Cl)cc2)N1c1ccc(O)c2ncccc12 (stereo not given) | 59 | 19% | 36 | inactive | 10%
O=C1C(Cl)C(c2ccc(F)cc2)N1c1ccc(O)c2ncccc12 (stereo not given) | 37 | 12% | 26 | inactive | inactive

Source: ChEMBL document CHEMBL1158606, “Synthesis and molecular modeling studies of 3-chloro-4-substituted-1-(8-hydroxy-quinolin-5-yl)-azetidin-2-ones as novel anti-filarial agents” (2010)
